According to patent US9242009B2, “Compositions and methods to treat neurodegenerative diseases” (The General Hospital Corporation, priority 2012, dated 2016):

Assays:
[1] = tested on: phosphorylated ERK1/2 at threonine 202 and tyrosine 204; assay: Immunoblot of phosphorylated ERK1/2 in SH-SY5Y after OGD; type: cell-based, Human; details: 50 μM added 8 hours after end of OGD
Experimental: OGD for SH-SY5Y was performed by placing cells in a hypoxia chamber ([…] Technologies Inc.) for 15 hours, followed by 24 hours of reoxygenation as previously reported (FIG. 3A) (Serra-Pérez et al. (2008) Journal of Neurochemistry 106, 1237-1247). Briefly, medium was replaced with glucose-free RPMI 1640 with L-glutamine (Cellgro by Mediatech, Inc), deoxygenated with anaerobic gas mixture (93% N2-5% CO2-2% H2) for 30 minutes before use. Cells were then placed in a hypoxia chamber, flushed with anaerobic gas mixture (93% N2-5% CO2-2% H2) and incubated at 37° C. […]
Protein levels in SH-SY5Y were determined by standard immunoblot techniques using primary antibodies (1:1,000, Cell Signaling Technology Inc., Danvers, Mass.) against cleaved caspase-3, caspase-3, phosphorylated Akt at threonine 308, Akt, phosphorylated ERK1/2 at threonine 202 and tyrosine 204, Erk1/2, β-tubulin and phosphorylated tau protein at serine 202 and threonine 205 (1:250; Thermo scientific, MN1020), tau protein (1:1000; Thermo scientific, MN1010). Bound antibody was detected with a horseradish peroxidase-linked antibody directed against rabbit IgG (1:10,000˜1:25,000; Cell Signaling Technology Inc.), or mouse IgG (1:2,000; GE healthcare, NA931V) and was visualized using chemiluminescence with ECL Advance kit (GE healthcare).

mice challenged with LPS = assay: LPS-induced cognitive impairment, Morris water-maze
Aβ1-42 = details: LPS challenge for 7 days
[2] = tested on: murine primary cortical neurons; assay: Intracellular calcium level [Ca2+]i (Fura-2/AM) with or without glutamate; type: cell-based, mice; details: 20 μM
[3] = Plasma and cerebral sulfide levels of mice after intraperitoneal administration; type: in vivo; details: 25 μmol/kg intraperitoneal, 90 minutes after administration
Excerpt: Blood was drawn from left ventricle and centrifuged to collect the plasma. After perfusion with Tris-HCl buffer via left ventricle, brain was harvested, homogenized in Tris-HCl, and centrifuged. Plasma and supernatant of brain homogenate were derivatized with MBB and analyzed by HPLC.

SH-SY5Y = assay: Intracellular GSH levels in SH-SY5Y (HPLC); type: cell-based, Human; details: 50 μM, 8 hours
Experimental: Intracellular GSH level of SH-SY5Y was measured using HPLC method as previously reported (Kimura et al. (2009) Antioxidants & Redox Signaling 12, 1-13). Briefly, cells were seeded into 6 cm dishes (5×10^5 cells per dish) and treated with 50 μM H2S donors or memantine with or without 2 mM glutamate for 8 hours, followed by washing with ice-cold PBS. Cells were scraped and transferred to a microfuge tube and sonicated. Some fraction of lysate was used for protein assay. After centrifugation, 75 μl of supernatant, 26 μl of 2-(cyclohexylamino) ethanesulfonic acid (CHES, 0.5 M, PH 8.4), and 4 μl of 50 μM MBB were mixed and incubated at room temperature in dark for 30 minutes. Acetic acid (100 μl, 30% v/v) was added, followed by centrifugation at 15,000×g for 10 min after 5 min incubation of the tube on ice. The supernatant was analyzed using HPLC at wavelength of λex=370 nm and λem=486 nm.

[4] = tested on: phosphorylated Akt at threonine 308; assay: Immunoblot of phosphorylated Akt in SH-SY5Y after OGD; type: cell-based, Human; details: 50 μM added 8 hours after end of OGD
[5] = tested on: phosphorylated tau protein at serine 202 and threonine 205; assay: LPS-induced tau phosphorylation in mice hippocampus (immunoblot); type: in vivo; details: 90 μmol/kg pretreatment
SH-SY5Y cells = assay: Oxygen-glucose deprivation (OGD) of SH-SY5Y cells, viability by LDH release, MTT and CV assays; type: cell-based, Human
Experimental: OGD for SH-SY5Y was performed by placing cells in a hypoxia chamber ([…] Technologies Inc.) for 15 hours, followed by 24 hours of reoxygenation as previously reported (FIG. 3A) (Serra-Pérez et al. (2008) Journal of Neurochemistry 106, 1237-1247). Briefly, medium was replaced with glucose-free RPMI 1640 with L-glutamine (Cellgro by Mediatech, Inc), deoxygenated with anaerobic gas mixture (93% N2-5% CO2-2% H2) for 30 minutes before use. Cells were then placed in a hypoxia chamber, flushed with anaerobic gas mixture (93% N2-5% CO2-2% H2) and incubated at 37° C. After 15 hours of hypoxia, medium was replaced with DMEM/F12 and incubated for 24 hours at 37° C. in 95% air/5% CO2 in a humidified incubator.
A microtiter plate containing cells was centrifuged at 250×g for 10 minutes and the supernatant was used for LDH measurement with LDH Cytotoxicity Detection Kit (Roche). After aspirating the medium, remaining cells were washed with PBS, then, 100 μl of 1% Triton-X was added to each well, followed by incubation at 37° C. for 30 minutes. Medium and lysates were used for LDH measurement at wavelength 492 nm. Percentage of released LDH was calculated with following formula: {LDH (medium)/LDH (medium+cell)×100}. Average value of control (cells without OGD) was deducted as background.
Ten μl of thiazolyl blue tetrazolium bromide solution (5 mg/ml in PH 7.4 PBS) was added to each well containing 100 μl of medium and cells, followed by incubation at 37° C. for 4 hours in the dark. Isopropanol (100 μl, 0.04 N HCl) was added to dissolve blue dye. After dissolved completely, absorbance was measured with plate-reader (Synergy 2, BioTek Instrument) at test wavelength 570 nm and reference wavelength 670 nm. Cell viability was determined by absorbance at 570 nm and reported as ratio to control cells (without OGD).
After aspirating culture medium, cells were fixed and stained by 0.5% CV in 95% (v/v) ethanol for 5 minutes, then washed by tap water several times. After taking photographs, 1% sodium dodecylsulfate solution was added to each well to elute blue dye. Absorbance was measured with plate-reader at 595 nm of wavelength. Values were shown as ratio to control (cells without OGD).

[6] = time- and dose-range studies, SH-SY5Y

**Q.** For `C[C@]12C[C@@H]3C[C@](C)(C1)C[C@@](NC(=O)c1ccc(-c4cssc4=S)cc1)(C3)C2` [S-memantine, N-((1r,3R,5S,7r)-3,5-dimethyladamantan-1-yl)-4-(3-thioxo-3H-1,2-dithiol-4-yl)-benzamide], which “Dephosphorylation of ERK after OGD” value [1] is on record?
**A.** Its value is “attenuated dephosphorylation of ERK”.

**Q.** What about the “Swimming speed in Morris water-maze test” value (mice challenged with LPS; 90 μmol/kg i.p.) of the same compound?
**A.** Its value is “did not change it”.

**Q.** What about the “Latency until getting platform in Morris water-maze test” value (mice challenged with LPS; 90 μmol/kg i.p. 30 min before LPS, 4 hours after LPS-challenge) of the same compound?
**A.** The value was “improved latency”.

**Q.** And the “Aβ1-42 accumulation in mice cortex, or hippocampus” value (Aβ1-42; 90 μmol/kg pretreatment)?
**A.** The value was “prevented Aβ1-42 accumulation”.

**Q.** And the “Prevention of Aβ1-42 accumulation compared with memantine” value (Aβ1-42)?
**A.** Its value is “prevented Aβ1-42 accumulation more markedly than did memantine”.

**Q.** What about the Glutamate-induced calcium accumulation ([2]; 100 μM glutamate) of the same compound?
**A.** The Glutamate-induced calcium accumulation was “suppressed calcium accumulation”.

**Q.** And the “Magnitude of calcium accumulation compared with Na2S or ACS48” value ([2]; without glutamate)?
**A.** Its value is “markedly smaller than that induced by Na2S or ACS48”.

**Q.** And the Cerebral sulfide levels [3]?
**A.** The Cerebral sulfide levels was “increased”.

**Q.** And the Plasma sulfide levels [3]?
**A.** Its Plasma sulfide levels is “increased plasma sulfide levels”.

**Q.** And the “Magnitude of increase of GSH levels compared with Na2S or ACS48” value (SH-SY5Y)?
**A.** The value was “greater than with Na2S or ACS48”.

**Q.** And the “Intracellular GSH levels” value (SH-SY5Y; with 2 mM glutamate)?
**A.** Its value is “restored intracellular GSH levels”.

**Q.** And the “Intracellular GSH levels” value (SH-SY5Y; without glutamate)?
**A.** Its value is “increased intracellular GSH levels”.

**Q.** What about the “Akt phosphorylation after OGD” value [4] of the same compound?
**A.** Its value is “did not affect Akt phosphorylation”.

**Q.** And the “LPS-induced tau phosphorylation at serine 202 and threonine 205 in mice hippocampus” value [5]?
**A.** The value was “prevented LPS-induced tau phosphorylation”.

**Q.** What about the “Cell viability after OGD (LDH release, MTT, CV assays)” value (SH-SY5Y cells; 50 μM added 8 hours after the end of OGD, 15 hours OGD, 24 hours reoxygenation) of the same compound?
**A.** The value was “improved the viability of SH-SY5Y cells more markedly than did addition of ACS48 or memantine”.

**Q.** What about the “Cell viability after OGD” value (SH-SY5Y cells; incubation starting at any time between pre-OGD and up to 8 hours after OGD) of the same compound?
**A.** The value was “improved”.

**Q.** And the “Most effective dose to improve viability after OGD” value (SH-SY5Y cells; [6])?
**A.** The value was 50 µM.

**Q.** What about the “Most effective time point of addition after the end of OGD” value (SH-SY5Y cells; [6]) of the same compound?
**A.** Its value is 8 h.
